Read-outs that look alike come from different tables or passages of the source.
Tests used:
VCaP cells = test: Cytotoxicity assessment (Cell-titer-glo cell viability), VCaP
Androgen receptor (AR) = target: T1, Androgen receptor (AR) (Homo sapiens, UniProt P10275, T878A); test: Assessment of AR proteolytic activity (Western blotting of LNCap cell lysates); assay type: cell-based; conditions: 24 hours of treatment, Western blotting quantified with Image J
T1 construct: 5.5×10^5 LNCap cells were injected into each well of a 6-well plate; endogenous in cells; host or cells: LNCaP
T1 sequence (P10275 1-920 T878A): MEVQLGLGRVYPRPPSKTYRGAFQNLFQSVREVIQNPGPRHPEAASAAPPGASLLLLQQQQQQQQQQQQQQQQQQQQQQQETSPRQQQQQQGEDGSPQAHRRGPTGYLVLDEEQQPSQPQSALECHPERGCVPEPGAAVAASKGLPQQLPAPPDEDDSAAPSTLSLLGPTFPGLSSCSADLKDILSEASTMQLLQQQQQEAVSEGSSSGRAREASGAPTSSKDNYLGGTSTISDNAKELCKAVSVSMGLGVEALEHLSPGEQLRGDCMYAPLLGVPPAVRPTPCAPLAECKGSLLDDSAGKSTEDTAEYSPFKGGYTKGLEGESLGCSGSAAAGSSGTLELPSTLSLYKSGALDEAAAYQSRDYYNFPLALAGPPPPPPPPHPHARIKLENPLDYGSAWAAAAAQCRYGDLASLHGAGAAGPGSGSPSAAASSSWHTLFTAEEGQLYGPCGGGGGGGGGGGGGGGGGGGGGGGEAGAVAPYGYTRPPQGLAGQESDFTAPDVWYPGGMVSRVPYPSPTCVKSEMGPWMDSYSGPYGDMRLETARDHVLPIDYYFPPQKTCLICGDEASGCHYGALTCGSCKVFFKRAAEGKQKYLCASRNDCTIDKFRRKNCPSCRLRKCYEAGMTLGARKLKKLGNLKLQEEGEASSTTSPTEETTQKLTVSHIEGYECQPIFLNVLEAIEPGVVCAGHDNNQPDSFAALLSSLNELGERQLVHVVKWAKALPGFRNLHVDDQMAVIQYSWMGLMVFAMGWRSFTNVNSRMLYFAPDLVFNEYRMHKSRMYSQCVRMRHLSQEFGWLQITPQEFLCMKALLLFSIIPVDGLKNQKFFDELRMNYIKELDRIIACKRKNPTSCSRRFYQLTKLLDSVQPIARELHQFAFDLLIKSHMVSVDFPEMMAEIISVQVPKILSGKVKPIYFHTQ
How it was run: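 AR degradation read by Western blot densitometry on RIPA lysates (pH 7.5, protease inhibitor cocktail). Lysates came from LNCap cells, 5.5×10^5 per well, exposed to compound for 24 hours.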

[1] = read-out: VCaP (CC50), VCaP cells, 6 days of treatment, Cell-titer-glo, vs DMSO

Row | remaining activity at 1 µM (Androgen receptor (AR); read-out: Degradation (1 μM treated in LNCaP, % AR remaining)) | Structure (SMILES) | CC50 (VCaP cells; [1]) | Degradation (1 μM treated in LNCaP, % AR remaining) (Androgen receptor (AR)) | CC50 (VCaP cells; Homo sapiens, VCaP, 144 h, read-out: VCaP (CC50, μM))
1 |  | CC1(C)C(NC(=O)c2ccc(N3CCN(CC4(O)CCN(C(=O)C5CCN(c6ccc7nnn(C8CCC(=O)NC8=O)c(=O)c7c6)CC5)CC4)CC3)cc2)C(C)(C)C1Oc1ccc(C#N)c(Cl)c1 (stereo not drawn) [Example 55, N-((1r,3r)-3-(3-chloro-4-cyanophenoxy)-2,2,4,4-tetramethylcyclobutyl)-4-(4-((1-(1-(3-(2,6-dioxopiperidin-3-yl)-4-oxo-3,4-dihydrobenzo[d][1,2,3]triazin-6-yl)piperidine-4-carbonyl)-4-hydroxypiperidin-4-yl)methyl)piperazin-1-yl)benzamide] | 0.0365 µM | 8.6% | 
2 | 25% | CC1(C)[C@H](NC(=O)c2ccc(N3CCN(CC4(F)CCN(c5ccc6nnn(C7CCC(=O)NC7=O)c(=O)c6c5)CC4)CC3)cc2)C(C)(C)[C@H]1Oc1ccc(C#N)c(Cl)c1 (stereo partly drawn) [Example 61, N-((1r,3r)-3-(3-chloro-4-cyanophenoxy)-2,2,4,4-tetramethylcyclobutyl)-4-(4-((1-(3-(2,6-dioxopiperidin-3-yl)-4-oxo-3,4-dihydrobenzo[d][1,2,3]triazin-6-yl)-4-fluoropiperidin-4-yl)methyl)piperazin-1-yl)benzamide] |  |  | 0.29 µM
3 |  | CC1(C)C(NC(=O)c2ccc(N3CCN(CC4(F)CCN(C(=O)C5CCN(c6ccc7nnn(C8CCC(=O)NC8=O)c(=O)c7c6)CC5)CC4)CC3)cc2)C(C)(C)C1Oc1ccc(C#N)c(Cl)c1 (stereo not drawn) [Example 62, N-((1r,3r)-3-(3-chloro-4-cyanophenoxy)-2,2,4,4-tetramethylcyclobutyl)-4-(4-((1-(1-(3-(2,6-dioxopiperidin-3-yl)-4-oxo-3,4-dihydrobenzo[d][1,2,3]triazin-6-yl)piperidine-4-carbonyl)-4-fluoropiperidin-4-yl)methyl)piperazin-1-yl)benzamide] | 0.0345 µM | 15% | 
4 |  | CC1(C)C(NC(=O)c2ccc(N3CCN(C=C4CCN(C(=O)C5CCN(c6ccc7nnn(C8CCC(=O)NC8=O)c(=O)c7c6)CC5)CC4)CC3)cc2)C(C)(C)C1Oc1ccc(C#N)c(Cl)c1 (stereo not drawn) [Example 65, N-((1r,3r)-3-(3-chloro-4-cyanophenoxy)-2,2,4,4-tetramethylcyclobutyl)-4-(4-((1-(1-(3-(2,6-dioxopiperidin-3-yl)-4-oxo-3,4-dihydrobenzo[d][1,2,3]triazin-6-yl)piperidine-4-carbonyl)piperidin-4-ylidene)methyl)piperazin-1-yl)benzamide] | 0.044 µM | 25% | 
5 |  | CC1(C)C(NC(=O)c2ccc(N3CCN(CC4CCN(CCNC(=O)C5CCN(c6ccc7nnn(C8CCC(=O)NC8=O)c(=O)c7c6)CC5)CC4)CC3)cc2)C(C)(C)C1Oc1ccc(C#N)c(Cl)c1 (stereo not drawn) [Example 68, N-(2-(4-((4-(4-(((1r,3r)-3-(3-chloro-4-cyanophenoxy)-2,2,4,4-tetramethylcyclobutyl)carbamoyl)phenyl)piperazin-1-yl)methyl)piperidin-1-yl)ethyl)-1-(3-(2,6-dioxopiperidin-3-yl)-4-oxo-3,4-dihydrobenzo[d][1,2,3]triazin-6-yl)piperidine-4-carboxamide] | 0.162 µM | 26% | 
6 |  | CC1(C)C(NC(=O)c2ccc(N3CC4CC3CN4C3CC4(CCN(C(=O)C5CCN(c6ccc7nnn(C8CCC(=O)NC8=O)c(=O)c7c6)CC5)CC4)C3)cc2)C(C)(C)C1Oc1ccc(C#N)c(Cl)c1 (stereo not drawn) [Example 71, N-((1r,3r)-3-(3-chloro-4-cyanophenoxy)-2,2,4,4-tetramethylcyclobutyl)-4-(5-(7-(1-(3-(2,6-dioxopiperidin-3-yl)-4-oxo-3,4-dihydrobenzo[d][1,2,3]triazin-6-yl)piperidine-4-carbonyl)-7-azaspiro[3.5]nonan-2-yl)-2,5-diazabicyclo[2.2.1]heptan-2-yl)benzamide] | 0.0705 µM | 37% | 
7 |  | CC1(C)[C@H](NC(=O)c2ccc(C3CCN(CCOC4CCN(C(=O)C5CCN(c6ccc7nnn(C8CCC(=O)NC8=O)c(=O)c7c6)CC5)CC4)CC3)cc2)C(C)(C)[C@H]1Oc1ccc(C#N)c(Cl)c1 (stereo partly drawn) [Example 74, N-((1r,3r)-3-(3-chloro-4-cyanophenoxy)-2,2,4,4-tetramethylcyclobutyl)-4-(1-(2-((1-(1-(3-(2,6-dioxopiperidin-3-yl)-4-oxo-3,4-dihydrobenzo[d][1,2,3]triazin-6-yl)piperidine-4-carbonyl)piperidin-4-yl)oxy)ethyl)piperidin-4-yl)benzamide] | 0.0732 µM | 20% | 
8 |  | CC1(C)C(NC(=O)c2ccc(N3CCN(CC4CCN(c5ccc6nnn(C7CCC(=O)NC7=O)c(=O)c6c5)CC4)CC3)nc2)C(C)(C)C1Oc1ccc(C#N)c(Cl)c1 (stereo not drawn) [Example 78, N-((1r,3r)-3-(3-chloro-4-cyanophenoxy)-2,2,4,4-tetramethylcyclobutyl)-6-(4-((1-(3-(2,6-dioxopiperidin-3-yl)-4-oxo-3,4-dihydrobenzo[d][1,2,3]triazin-6-yl)piperidin-4-yl)methyl)piperazin-1-yl)nicotinamide] | 0.00768 µM | 24% | 
9 |  | CC1(C)C(NC(=O)c2cnc(N3CCN(CC4CCN(c5ccc6nnn(C7CCC(=O)NC7=O)c(=O)c6c5)CC4)CC3)cn2)C(C)(C)C1Oc1ccc(C#N)c(Cl)c1 (stereo not drawn) [Example 79, N-((1r,3r)-3-(3-chloro-4-cyanophenoxy)-2,2,4,4-tetramethylcyclobutyl)-5-(4-((1-(3-(2,6-dioxopiperidin-3-yl)-4-oxo-3,4-dihydrobenzo[d][1,2,3]triazin-6-yl)piperidin-4-yl)methyl)piperazin-1-yl)pyrazine-2-carboxamide] | 0.2 µM | 45% | 
10 |  | CC1(C)C(NC(=O)c2ccc(N3CCN(CC4CCN(C(=O)C5CN(c6ccc7nnn(C8CCC(=O)NC8=O)c(=O)c7c6)C5)CC4)CC3)nc2)C(C)(C)C1Oc1ccc(C#N)c(Cl)c1 (stereo not drawn) [Example 80, N-((1r,3r)-3-(3-chloro-4-cyanophenoxy)-2,2,4,4-tetramethylcyclobutyl)-6-(4-((1-(1-(3-(2,6-dioxopiperidin-3-yl)-4-oxo-3,4-dihydrobenzo[d][1,2,3]triazin-6-yl)azetidine-3-carbonyl)piperidin-4-yl)methyl)piperazin-1-yl)nicotinamide] | 0.01 µM | 56% | 
11 |  | CC1(C)C(NC(=O)c2ccc(N3CCN(CC4CCN(C(=O)C5CCN(c6ccc7nnn(C8CCC(=O)NC8=O)c(=O)c7c6)CC5)CC4)CC3)nc2)C(C)(C)C1Oc1ccc(C#N)c(Cl)c1 (stereo not drawn) [Example 81, N-((1r,3r)-3-(3-chloro-4-cyanophenoxy)-2,2,4,4-tetramethylcyclobutyl)-6-(4-((1-(1-(3-(2,6-dioxopiperidin-3-yl)-4-oxo-3,4-dihydrobenzo[d][1,2,3]triazin-6-yl)piperidine-4-carbonyl)piperidin-4-yl)methyl)piperazin-1-yl)nicotinamide] | 0.0238 µM | 18% | 
12 |  | CC1(C)C(NC(=O)c2ccc(-c3cnn(C4CCN(CC5CCN(C(=O)C6CCN(c7ccc8nnn(C9CCC(=O)NC9=O)c(=O)c8c7)CC6)CC5)CC4)c3)cc2)C(C)(C)C1Oc1ccc(C#N)c(Cl)c1 (stereo not drawn) [Example 82, N-((1r,3r)-3-(3-chloro-4-cyanophenoxy)-2,2,4,4-tetramethylcyclobutyl)-4-(1-(1-((1-(1-(3-(2,6-dioxopiperidin-3-yl)-4-oxo-3,4-dihydrobenzo[d][1,2,3]triazin-6-yl)piperidine-4-carbonyl)piperidin-4-yl)methyl)piperidin-4-yl)-1H-pyrazol-4-yl)benzamide] | 0.0144 µM | 27% | 
